{"source": "patent US8415373B2", "about": "“Isoquinolinone derivatives as NK3 antagonists” (H. Lundbeck A/S, priority 2008, dated 2013)", "key": {"[1]": {"test_system": "schizophrenics", "conditions": "cited from earlier work"}, "[2]": {"conditions": "Nature reviews, 4, 967-975, 2005; cited from earlier work"}, "[3]": {"conditions": "Nature reviews, 4, 967-975, 2005; cited from earlier work", "remark": "listed apart in the source"}, "[4]": {"biological_target": "T1, human NK3 receptor (Homo sapiens, UniProt P29371)", "T1 construct": "expressed in transfected cells", "T1 sequence (P29371 1-465)": "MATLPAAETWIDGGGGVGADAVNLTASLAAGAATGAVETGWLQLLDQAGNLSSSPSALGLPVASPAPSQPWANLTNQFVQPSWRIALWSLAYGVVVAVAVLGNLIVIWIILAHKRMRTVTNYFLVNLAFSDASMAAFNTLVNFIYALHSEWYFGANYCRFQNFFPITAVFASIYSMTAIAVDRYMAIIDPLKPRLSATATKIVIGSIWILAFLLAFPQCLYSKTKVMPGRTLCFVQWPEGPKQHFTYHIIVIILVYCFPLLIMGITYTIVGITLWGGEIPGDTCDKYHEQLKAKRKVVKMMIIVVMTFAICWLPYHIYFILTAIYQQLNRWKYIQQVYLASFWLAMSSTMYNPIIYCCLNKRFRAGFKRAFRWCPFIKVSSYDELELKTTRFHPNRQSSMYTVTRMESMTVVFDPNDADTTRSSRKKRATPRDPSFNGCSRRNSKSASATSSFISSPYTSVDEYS", "assay": "NK3 receptor binding assay (SPA-based competition binding, 125I-NKB)", "conditions": "read-out: Affinity (Ki/nM)", "description": "Membranepreparation: BHK cells stably expressing the human NK3 receptor were seeded in harvesting plates in Dulbeccos MEM containing GlutaMax (862 mg/l), 1 mM sodium pyruvate, 10% fetal calf serum, 1% Pen/Strep, 1 mg/ml G418 and were grown at 34° C. in a humidified atmosphere containing 10% CO2. To increase receptor expression, 10 μM trichotatin A was added to the media 24 hours before harvest of the cells at a confluency of app 90%. Prior to the harvesting, the cells were washed twice with PBS without Mg^2+ og Ca^2+ and subsequently scrapped of in 10 ml PBS pr harvesting plate. The cell suspension were centrifuged at 1500×G in three minutes before resuspension in 15 mM Tris-HCl pH 7.5 buffer containing 2 mM MgCl2; 0.3 mM EDTA and 1 mM EGTA (buffer A). The cell suspension was homogenised and subsequently centrifuged at 40000×G in 30 minutes. The membrane-pellet was resuspended in buffer A containing 250 mM sucrose, aliquoted and stored at −80° C.\nAffinity assay description: The assay was performed as a SPA-based competition-binding assay in a 50 mM Tris pH 7.4 assay buffer containing 120 mM NaCl, 3 mM MnCl2, 40 μg/ml bacitracin, 2 μg/ml Chymostatin, 1 μg/ml Phosphoramidon and 4 μg/ml Leupeptin. […] The assay plate was subsequently under agitation incubated for 90 min at RT. The plate was centrifugated 10 minutes at 500×G and counted in a topcounter 5 minutes pr well."}}, "data": [{"smiles": "CC[C@H](NC(=O)c1c(O)c(-c2ccccc2)nc2ccccc12)c1ccccc1", "note": "[talnetant]", "values": [{"measurement": "effect on cognitive behaviour of schizophrenics in clinical trials", "setting": "[1]; Curr. Opion. Invest. Drug, 6, 717-721, 2005", "value": "ameliorate"}, {"measurement": "solubility", "setting": "[2]", "value": "poor"}, {"measurement": "bioavailability", "setting": "[3]", "value": "poor"}, {"measurement": "blood-brain barrier penetration", "setting": "[3]", "value": "poor"}, {"measurement": "clearance", "setting": "[3]", "value": "relatively high"}]}, {"smiles": "Cc1c(C(=O)N[C@H](c2cccc(F)c2)C2CC2)c2cccc(F)c2c(=O)n1Cc1ccsc1", "note": "[Example 2g, 8-Fluoro-3-methyl-1-oxo-2-thiophen-3-ylmethyl-1,2-dihydro-isoquinoline-4-carboxylic acid [(S)-cyclopropyl-(3-fluoro-phenyl)-methyl]-amide]", "values": [{"measurement": "Ki", "setting": "[4]", "value": 7.8, "unit": "nM"}]}, {"smiles": "Cc1nonc1Cn1c(C)c(C(=O)N[C@H](c2cccc(F)c2)C2CCC2)c2cccc(F)c2c1=O", "note": "[Example 2v, 8-Fluoro-3-methyl-2-(4-methyl-furazan-3-ylmethyl)-1-oxo-1,2-dihydro-isoquinoline-4-carboxylic acid [(S)-cyclobutyl-(3-fluoro-phenyl)-methyl]-amide]", "values": [{"measurement": "Ki", "setting": "[4]", "value": 6.6, "unit": "nM"}]}, {"smiles": "Cc1c(C(=O)N[C@H](c2cccc(F)c2)C2CCC2)c2cccc(F)c2c(=O)n1Cc1cocn1", "note": "[Example 2t, 8-Fluoro-3-methyl-2-oxazol-4-ylmethyl-1-oxo-1,2-dihydro-isoquinoline-4-carboxylic acid [(S)-cyclobutyl-(3-fluoro-phenyl)-methyl]-amide]", "values": [{"measurement": "Ki", "setting": "[4]", "value": 12, "unit": "nM"}]}, {"smiles": "Cc1cc(Cn2c(C)c(C(=O)N[C@H](c3cccc(F)c3)C3CCC3)c3cccc(F)c3c2=O)no1", "note": "[Example 2m, 8-Fluoro-3-methyl-2-(5-methyl-isoxazol-3-ylmethyl)-1-oxo-1,2-dihydro-isoquinoline-4-carboxylic acid [(S)-cyclobutyl-(3-fluoro-phenyl)-methyl]-amide]", "values": [{"measurement": "Ki", "setting": "[4]", "value": 33, "unit": "nM"}]}, {"smiles": "Cc1nc(Cn2c(C)c(C(=O)N[C@H](c3cccc(F)c3)C3CCC3)c3cccc(F)c3c2=O)cs1", "note": "[Example 2ac, 8-Fluoro-3-methyl-2-(2-methyl-thiazol-4-ylmethyl)-1-oxo-1,2-dihydro-isoquinoline-4-carboxylic acid [(S)-cyclobutyl-(3-fluoro-phenyl)-methyl]-amide]", "values": [{"measurement": "Ki", "setting": "[4]", "value": 95, "unit": "nM"}]}, {"smiles": "Cc1c(C(=O)N[C@H](c2cccc(F)c2)C2CC2)c2cccc(F)c2c(=O)n1Cc1ccoc1", "note": "[Example 2a, 8-Fluoro-2-furan-3-ylmethyl-3-methyl-1-oxo-1,2-dihydro-isoquinoline-4-carboxylic acid [(S)-cyclopropyl-(3-fluoro-phenyl)-methyl]-amide]", "values": [{"measurement": "Ki", "setting": "[4]", "value": 28, "unit": "nM"}]}, {"smiles": "CC[C@H](NC(=O)c1c(C)n(Nc2ccccc2)c(=O)c2ccccc12)c1ccccc1", "note": "[Example 1a, 3-Methyl-1-oxo-2-phenylamino-1,2-dihydro-isoquinoline-4-carboxylic acid ((S)-1-phenyl-propyl)-amide]", "values": [{"measurement": "Ki", "setting": "[4]", "value": 200, "unit": "nM"}]}, {"smiles": "Cc1c(C(=O)N[C@H](c2cccc(F)c2)C2CC2)c2cccc(F)c2c(=O)n1Cc1cccnc1", "note": "[Example 2b, 8-Fluoro-3-methyl-1-oxo-2-pyridin-3-ylmethyl-1,2-dihydro-isoquinoline-4-carboxylic acid [(S)-cyclopropyl-(3-fluoro-phenyl)-methyl]-amide]", "values": [{"measurement": "Ki", "setting": "[4]", "value": 350, "unit": "nM"}]}, {"smiles": "Cc1nnc(Cn2c(C)c(C(=O)N[C@H](c3cccc(F)c3)C3CCC3)c3cccc(F)c3c2=O)[nH]1", "note": "[Example 2o, 8-Fluoro-3-methyl-2-(5-methyl-4H-[1,2,4]triazol-3-ylmethyl)-1-oxo-1,2-dihydro-isoquinoline-4-carboxylic acid [(S)-cyclobutyl-(3-fluoro-phenyl)-methyl]-amide]", "values": [{"measurement": "Ki", "setting": "[4]", "value": 120, "unit": "nM"}]}, {"smiles": "Cc1c(C(=O)N[C@H](c2cccc(F)c2)C2CC2)c2cccc(F)c2c(=O)n1Cc1cc(F)ccc1F", "note": "[Example 2d, 2-(2,5-Difluoro-benzyl)-8-fluoro-3-methyl-1-oxo-1,2-dihydro-isoquinoline-4-carboxylic acid [(S)-cyclopropyl-(3-fluoro-phenyl)-methyl]-amide]", "values": [{"measurement": "Ki", "setting": "[4]", "value": 180, "unit": "nM"}]}, {"smiles": "Cc1cc(Cn2c(C)c(C(=O)N[C@H](c3cccc(F)c3)C3CCC3)c3cccc(F)c3c2=O)[nH]n1", "note": "[Example 2p, 8-Fluoro-3-methyl-2-(5-methyl-2H-pyrazol-3-ylmethyl)-1-oxo-1,2-dihydro-isoquinoline-4-carboxylic acid [(S)-cyclobutyl-(3-fluoro-phenyl)-methyl]-amide]", "values": [{"measurement": "Ki", "setting": "[4]", "value": 28, "unit": "nM"}]}, {"smiles": "CCn1ccnc1Cn1c(C)c(C(=O)N[C@H](c2cccc(F)c2)C2CCC2)c2cccc(F)c2c1=O", "note": "[Example 2ah, 2-(1-Ethyl-1H-imidazol-2-ylmethyl)-8-fluoro-3-methyl-1-oxo-1,2-dihydro-isoquinoline-4-carboxylic acid [(S)-cyclobutyl-(3-fluoro-phenyl)-methyl]-amide]", "values": [{"measurement": "Ki", "setting": "[4]", "value": 43, "unit": "nM"}]}, {"smiles": "Cc1c(C(=O)N[C@H](c2ccc(F)c(F)c2)C2CCC2)c2cccc(F)c2c(=O)n1Cc1ncco1", "note": "[Example 4b, 8-Fluoro-3-methyl-2-oxazol-2-ylmethyl-1-oxo-1,2-dihydro-isoquinoline-4-carboxylic acid [(S)-cyclobutyl-(3,4-difluoro-phenyl)-methyl]-amide]", "values": [{"measurement": "Ki", "setting": "[4]", "value": 4, "unit": "nM"}]}, {"smiles": "CC(=O)N(C)C1(c2ccccc2)CCN(CCC[C@]2(c3ccc(Cl)c(Cl)c3)CCCN(C(=O)c3ccccc3)C2)CC1", "note": "[Osanetant, osanetant]", "values": [{"measurement": "effect versus placebo in clinical trials, in particular on positive symptoms of psychosis", "setting": "[1]; Am. J. Psychiatry, 161, 2004, 975-984", "value": "superior to placebo"}, {"measurement": "solubility", "setting": "[2]", "value": "poor"}, {"measurement": "bioavailability", "setting": "[3]", "value": "poor"}, {"measurement": "blood-brain barrier penetration", "setting": "[3]", "value": "poor"}, {"measurement": "clearance", "setting": "[3]", "value": "relatively high"}]}]}
